Laboratory results as given in article PMC3762675 (Chembiochem : a European journal of chemical biology, 2013).

Target: p38 and MK2 (Homo sapiens, UniProt Q16539)
Assay type: binding
Details: competitor 10 μM, LTR 2 500 nM, p38 400 nM, MK2 400 nM, UV 30 min

Chain of p38 and MK2 (Q16539 whole entry): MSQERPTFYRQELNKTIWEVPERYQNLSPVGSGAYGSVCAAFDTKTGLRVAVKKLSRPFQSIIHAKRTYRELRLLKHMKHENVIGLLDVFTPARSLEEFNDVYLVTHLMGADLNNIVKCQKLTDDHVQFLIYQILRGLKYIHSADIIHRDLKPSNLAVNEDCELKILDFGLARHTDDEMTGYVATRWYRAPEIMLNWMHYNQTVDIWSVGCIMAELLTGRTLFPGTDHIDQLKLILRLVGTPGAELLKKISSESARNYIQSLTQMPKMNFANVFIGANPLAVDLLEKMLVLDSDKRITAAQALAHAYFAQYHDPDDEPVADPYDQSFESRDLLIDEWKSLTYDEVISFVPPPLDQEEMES
Chain of p38 and MK2 (P49137 whole entry partner): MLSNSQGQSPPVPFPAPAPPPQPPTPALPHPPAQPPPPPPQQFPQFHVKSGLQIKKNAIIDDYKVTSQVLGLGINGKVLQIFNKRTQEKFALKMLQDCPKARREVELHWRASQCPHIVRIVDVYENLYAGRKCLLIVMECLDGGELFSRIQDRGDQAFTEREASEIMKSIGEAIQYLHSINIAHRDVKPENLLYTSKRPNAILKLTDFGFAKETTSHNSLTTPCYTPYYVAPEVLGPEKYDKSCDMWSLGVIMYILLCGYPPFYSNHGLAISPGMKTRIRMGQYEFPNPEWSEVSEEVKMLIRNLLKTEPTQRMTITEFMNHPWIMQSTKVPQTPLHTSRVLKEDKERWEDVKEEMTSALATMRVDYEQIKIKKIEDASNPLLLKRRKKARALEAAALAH

| Structure (SMILES) | blocking of labeling of p38 and MK2 |
| --- | --- |
| Cc1nc(Nc2ncc(C(=O)Nc3c(C)cccc3Cl)s2)cc(N2CCN(CCO)CC2)n1 [dasatinib] | does not completely block labeling |
| C#Cc1cccc(Nc2ncnc3cc(OCCOC)c(OCCOC)cc23)c1 [erlotinib] | do not block labeling |
